Assay results as given in ChEMBL document CHEMBL5579836, “Extensive targeting of chemical space at the prime side of ketoamide inhibitors of rhomboid proteases by branched substituents empowers their selectivity and potency” (Eur J Med Chem, 2024).
Starred links: 1 amine or outer side, 2 acyl side, 3 side chain; linkers in the order of their positions; H or OH if unused. Non-standard residues stand in square brackets, D forms with d. Residues, ends and D or L forms follow the SMILES beside them. *: point of attachment. Pheol(OBn) = c1ccc(COC[C@H](Cc2ccccc2)N*)cc1; NH(4-phenylbutyl) = c1ccc(CCCCN*)cc1; X1 = C[C@H](N[*:1])C(=O)C(=O)[*:2]

Tests used:
[1] = Inhibition of Strep-tagged recombinant human RHBDL2 extracted from Expi293 cells using KSp118 as substrate incubated for 1 hr by fluorescence based assay; assay type: cell-free
[2] = biological target: T1, Rhomboid protease GlpG (Escherichia coli (strain K12), UniProt P09391); assay: Inhibition of GlpG in wild-type Escherichia coli MC4100 using MBP-Flag-LacYTMD2-Trx as substrate
T1 sequence (P09391 whole entry): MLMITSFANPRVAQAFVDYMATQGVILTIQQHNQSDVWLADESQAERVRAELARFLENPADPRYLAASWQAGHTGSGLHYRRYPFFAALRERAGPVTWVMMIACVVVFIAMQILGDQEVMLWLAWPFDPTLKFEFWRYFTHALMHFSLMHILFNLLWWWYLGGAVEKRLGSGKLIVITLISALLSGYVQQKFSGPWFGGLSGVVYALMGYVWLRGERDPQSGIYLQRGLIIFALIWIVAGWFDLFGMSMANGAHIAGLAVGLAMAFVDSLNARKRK

[3] = biological target: T1, Rhomboid protease GlpG; assay: Inhibition of Escherichia coli GlpG extracted from Escherichia coli C43(DE3) using KSp96 as substrate incubated for 1 hr by fluorescence based assay; conditions: for Ki: read-out: Ki(app)
[4] = biological target: T2, Presenilin-associated rhomboid-like protein, mitochondrial (Homo sapiens, UniProt Q9H300); assay: Inhibition of tetracycline-inducible FLAG-tagged human PARL stably transfected in HEK293T harboring FITR/PARL KO; assay type: cell-based
T2 sequence (Q9H300 whole entry): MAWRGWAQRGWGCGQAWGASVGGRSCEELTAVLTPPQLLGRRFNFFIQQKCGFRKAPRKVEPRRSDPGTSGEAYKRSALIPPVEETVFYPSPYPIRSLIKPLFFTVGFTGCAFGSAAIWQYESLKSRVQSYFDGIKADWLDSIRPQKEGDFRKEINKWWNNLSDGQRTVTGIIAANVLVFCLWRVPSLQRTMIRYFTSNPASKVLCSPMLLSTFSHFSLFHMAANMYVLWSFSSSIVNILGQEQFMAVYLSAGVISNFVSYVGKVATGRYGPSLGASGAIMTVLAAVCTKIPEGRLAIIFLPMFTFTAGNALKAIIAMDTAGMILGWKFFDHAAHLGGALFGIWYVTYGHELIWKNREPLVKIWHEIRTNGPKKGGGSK

[5] = Selectivity index, ratio of IC50 for rhomboid (unknown origin) to IC50 for recombinant human PARL using KSp106 as substrate
[6] = Selectivity index, ratio of IC50 for rhomboid (unknown origin) to IC50 for Strep-tagged recombinant human RHBDL2 extracted from Expi293 cells using KSp118 as substrate
[7] = Selectivity index, ratio of IC50 for rhomboid (unknown origin) to IC50 for Escherichia coli GlpG extracted from Escherichia coli C43(DE3) using KSp96 as substrate

| Structure (SMILES) | IC50 [1] [µM] | EC50 [2] [µM] | IC50 [3] [µM] | other results |
| --- | --- | --- | --- | --- |
| CC(=O)N[C@H](C(=O)N[C@@H](CCCNC(=N)N)C(=O)N[C@@H](Cc1c[nH]cn1)C(=O)N[C@@H](C)C(=O)C(=O)N[C@H](COCc1ccccc1)Cc1ccccc1)C(C)C | 5.39 | 0.173 | 0.0025 | Ki [3]: 0.0014 µM |
| CC(=O)N[C@H](C(=O)N[C@@H](CCCNC(=N)N)C(=O)N[C@@H](Cc1c[nH]cn1)C(=O)N[C@@H](C)C(=O)C(=O)NCCc1ccccc1)C(C)C | – | 1.61 | 0.0561 | – |
| CC(=O)N1CCC[C@H]1C(=O)N[C@H](C(=O)N[C@@H](C)C(=O)N[C@@H](CCCCN)C(=O)N[C@@H](C)C(=O)C(=O)NCCCCc1ccccc1)C(C)C (Ac-PVAK[X1]-{NH(4-phenylbutyl)}) | 0.712 | – | 0.33 | – |
| CC(C)CC(=O)N[C@H](C(=O)N[C@@H](C)C(=O)N[C@@H](CCCCN)C(=O)N[C@@H](C)C(=O)C(=O)NCCCCc1ccccc1)C(C)C | 0.236 | – | – | – |
| CC(=O)N[C@@H](C)C(=O)N[C@H](C(=O)N[C@@H](Cc1ccccc1)C(=O)N[C@@H](CC(C)C)C(=O)N[C@@H](C)C(=O)C(=O)NCCCCc1ccccc1)C(C)C (Ac-AVFL[X1]-{NH(4-phenylbutyl)}) | 32.8 | – | 0.3 | EC50 [4]: 0.445 µM; Ratio IC50 [5]: 1; Ratio IC50 [6]: 1150; Ratio IC50 [7]: 10.6 |

The remaining compounds from weak to strong by IC50 [3], led by results:

| IC50 [1] [µM] | EC50 [2] [µM] | IC50 [3] [µM] | Structure (SMILES) | other results |
| --- | --- | --- | --- | --- |
| 6.21 | 1.47 | 0.0444 | CC(=O)N[C@H](C(=O)N[C@@H](CCCNC(=N)N)C(=O)N[C@@H](Cc1c[nH]cn1)C(=O)N[C@@H](C)C(=O)C(=O)NCCCCc1ccccc1)C(C)C | – |
| 55.5 | – | 0.0148 | CC(=O)N[C@@H](C)C(=O)N[C@H](C(=O)N[C@@H](Cc1ccccc1)C(=O)N[C@@H](CC(C)C)C(=O)N[C@@H](C)C(=O)C(=O)N[C@H](COCc1ccccc1)Cc1ccccc1)C(C)C (Ac-AVFL[X1]-{Pheol(OBn)}) | – |
| 0.768 | – | 0.0056 | CC(=O)N1CCC[C@H]1C(=O)N[C@H](C(=O)N[C@@H](C)C(=O)N[C@@H](CCCCN)C(=O)N[C@@H](C)C(=O)C(=O)N[C@H](COCc1ccccc1)Cc1ccccc1)C(C)C (Ac-PVAK[X1]-{Pheol(OBn)}) | – |
| – | 0.123 | 0.0023 | CC(=O)N[C@H](C(=O)N[C@@H](CCCNC(=N)N)C(=O)N[C@@H](Cc1c[nH]cn1)C(=O)N[C@@H](C)C(=O)C(=O)NC(CCCc1ccccc1)Cc1ccccc1)C(C)C (mixture of isomers) | Ki [3]: 0.0013 µM |
| – | 0.337 | 0.0023 | CC(C)CC(=O)N[C@@H](CCCNC(=N)N)C(=O)N[C@@H](Cc1c[nH]cn1)C(=O)N[C@@H](C)C(=O)C(=O)N[C@H](COCc1ccccc1)Cc1ccccc1 | – |
| – | 0.424 | 0.002 | C[C@H](NC(=O)[C@H](Cc1c[nH]cn1)NC(=O)[C@H](CCCNC(=N)N)NC(=O)CCc1ccccc1)C(=O)C(=O)N[C@H](COCc1ccccc1)Cc1ccccc1 | – |
| – | 0.131 | 0.0019 | CCCCc1ccc(OCC[C@H](Cc2ccccc2)NC(=O)C(=O)[C@H](C)NC(=O)[C@H](Cc2c[nH]cn2)NC(=O)[C@H](CCCNC(=N)N)NC(=O)[C@@H](NC(C)=O)C(C)C)cc1 | Ki [3]: 0.0007 µM |
